# Assays:
# [1] = tested on: simian (chimpanzee) P2RY14; assay: FLIPR whole cell Ca2+ agonist assay, HEK cells expressing simian (chimpanzee) P2RY14 and Gqi5; assay type: cell-based
# Excerpt: Stable HEK clonal cell lines expressing P2RY14 and the chimeric G protein Gqi5 were constructed. The chimeric Gqi5 forces the coupling of P2RY14 through the Gq (calcium) pathway and allows for monitoring of calcium signaling using a calcium binding fluorescent dye and a FLIPR (fluorometric imaging plate reader, MDS Sciex). Vector pCEP4 comprising the chimeric Gqi5 was obtained from Molecular Devices, Sunnyvale, Calif. (Cat. No. RD-PGQI5).
# The simian (chimpanzee) P2RY14 nucleic acid fragment was synthesized based upon the Ensembl Gene ID ENSPTRG00000030093 by Bio S & T, Montreal, Quebec, Canada, to be flanked with KpnI and NotI restriction enzyme sites. […] The DNA fragment was digested with KpnI and NotI and then cloned into a pcDEF3 vector previously digested with KpnI and NotI to place the DNA fragment in the proper orientation downstream of the human EF-1a promoter. The nucleic acid encoding the simian P2RY14 was under the control of the human EF-1a promoter.
# Cells were grown in DMEM medium containing 25 mM HEPES, pH 7.4 and 10% FBS, 50 units/ml penicillin/50 μg/ml streptomycin, 2 mM glutamine and 1 mM sodium pyruvate at 37° C. in humidified air containing 5% CO2. Two days post-transfection, cells were grown under selection in the DMEM medium as indicated above and supplemented with 200 μg/ml Hygromycin B and 250 μg/ml geneticin.
# Cells were incubated overnight at 37° C. and 5% CO2 to form a monolayer. On the following day, 30 μl of fluorescent no-wash dye was added to the cell monolayer and the plate was incubated for 60 minutes at 37° C., 5% CO2.
# For agonist assays, 6.12 μl of 10× agonist solution was added to the cell/dye incubation and Ca^2+ signaling was monitored by FLIPR. For antagonist assays, 250 nl of compound in 100% DMSO was added to cell/dye mixture; following a 20 minute incubation at room temperature, 6.12 μl of 10× agonist solution at EC80 in HBSS containing 20 mM Hepes was added to cells and Ca^2+ signaling was monitored by FLIPR. Quantitation of the % stimulation or inhibition of Ca^2+ signaling by agonist or antagonist, respectively, was calculated using the Max-Min fluorescent signal detected.
# mouse P2RY14 = target: T1, mouse P2RY14 (Mus musculus, UniProt Q9ESG6); assay: CellKey System live cell functional assay, mouse P2RY14; assay type: cell-based; conditions: HEK cells expressing mouse P2RY14 and Gqi5
# T1 construct: expressed in transfected cells
# T1 sequence (Q9ESG6 1-338): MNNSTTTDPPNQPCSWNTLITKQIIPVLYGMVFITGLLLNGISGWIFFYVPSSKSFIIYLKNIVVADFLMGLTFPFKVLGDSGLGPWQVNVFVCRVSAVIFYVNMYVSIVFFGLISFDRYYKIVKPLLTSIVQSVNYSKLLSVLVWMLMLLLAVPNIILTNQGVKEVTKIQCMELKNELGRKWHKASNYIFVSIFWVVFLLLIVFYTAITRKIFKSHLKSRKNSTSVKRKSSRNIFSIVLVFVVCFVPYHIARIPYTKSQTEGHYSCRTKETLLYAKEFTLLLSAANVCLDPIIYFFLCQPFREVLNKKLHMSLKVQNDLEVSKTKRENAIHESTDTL
# Method: The Cellkey System™ (MDS Sciex), a novel, live cell, label-free, real-time technology, was used to examine P2RY14 activation following agonist stimulation. The CellKey System™ is based on cellular dielectric spectroscopy (CDS) and monitors changes in impedance of the applied electrical current through the cell monolayer upon receptor activation.
# On the following day, growth medium was removed from the cell monolayer and replaced with 135 μl of HBSS pH 7.4 containing 20 mM Hepes for a 30 minutes pre-incubation period at room temperature. Baseline measurements were made for 5 minutes at 28° C. prior to ligand addition. For agonist assays, 15 μl of 10× agonist diluted in HBSS pH 7.4 containing 20 mM HEPES was added to the cell monolayer simultaneously using the 96 multichannel head from the CellKey™ System. Cellular response was monitored for 10 minutes to assess cellular response after ligand addition.
# simian P2RY14 = assay: Membrane filtration binding assay, simian P2RY14; design: species or system chimpanzee; conditions: simian P2RY14 membranes
# Method: Membrane preparations were made by N2 cavitation using a Parr unit. […] Cell were Dounce homogenized (size B, 10 strokes) and then added to the cavitation unit. Pressure was adjusted to 800 psi and cells were left under pressure for 30 minutes. Broken cells were released drop by drop and spun at 1000 g for 10 minutes. Supernatent was spun at 160,000 g (rotor type 60 Ti, 40000 rpm for 30 min). Pellet was resuspended in 10 mM HEPES/KOH pH 7.4, 1 mM EDTA in ⅕ the original volume, dounce homogenized (size A, 10 strokes), aliquoted, and frozen at −80° C.
# Binding assays were performed in 10 mM Hepes pH 7.4 (KOH), 5 mM MnCl2, 5 mM MgCl2 buffer. Membranes (10 μg/well for human P2RY14 and 30 μg/well for simian P2RY14) were incubated with 10 nM [5.6-^3H] Uridine 5′-triphosphate (UTP), ammonium salt from Amersham Biosciences (# TRK412) in presence of compounds diluted in DMSO (2% final in assay), in a total volume of 100 μl. 50 minutes (human P2RY14) or 60 minutes (simian) P2RY14) incubations were performed at room temperature with shaking. […] To examine the stability of [^3H]-UTP in the membrane filtration binding assay, 100 ul aliquots of the reaction mixture were extracted at 2, 10, 20, 40, 60 and 90 minutes with 100 uL of cold 80 mM EDTA solution (pH 8) and 200 uL of cold Acetonitrile. After mixing, proteins were precipitated by centrifugation at 13000 rpm for 10 minutes at 4° C. […] After 0.5 min at 10:90 50 mM KH2PO4/750 mM KH2PO4, a gradient was applied in order to increase to 100% 750 mM KH2PO4 at 5 min, after which this composition was maintained for an additional 3 min. Samples were kept at 4° C. prior to HPLC analysis
compound,measurement,setting,value
O=c1ccn([C@@H]2O[C@H](COP(=O)(O)O)[C@@H](O)[C@H]2O)c(=O)[nH]1 [UMP],activation of P2RY14 (Ca2+ signaling),[1],activated
same,"P2RY14 signaling (impedance, CellKey)",mouse P2RY14,mediated signaling
same,competition for [3H]-UTP/[3H]-UDP binding,simian P2RY14,able to successfully compete
same,Ki,"simian P2RY14; 10 nM radioligand, read-out: Ki, competition for [3H]-UTP/[3H]-UDP binding",~1000 nM

# From US20090148850A1, “Methods for identifying modulators of P2RY14” (priority 2007, published 2009)
